Assay results as given in US9133262B2, “Somatostatin antagonists” (Ipsen Pharma S.A.S., priority 1996, dated 2015).
Positions of bridges follow the written chain, without caps; N, C: chain ends. Non-standard residues stand in square brackets, D forms with d. Residues, ends and D or L forms follow the SMILES beside them. dDip = N[C@@H](C(=O)O)C(c1ccccc1)c1ccccc1; Phe(4-Br) = N[C@@H](Cc1ccc(Br)cc1)C(=O)O; Phe(4-Cl) = N[C@@H](Cc1ccc(Cl)cc1)C(=O)O; Phe(4-F) = N[C@@H](Cc1ccc(F)cc1)C(=O)O; Phe(4-I) = N[C@@H](Cc1ccc(I)cc1)C(=O)O; dPhe(4-F) = N[C@H](Cc1ccc(F)cc1)C(=O)O; 2Nal = N[C@@H](Cc1ccc2ccccc2c1)C(=O)O; Bta = N[C@@H](Cc1csc2ccccc12)C(=O)O; 3Pal = N[C@@H](Cc1cccnc1)C(=O)O; Tle = CC(C)(C)[C@H](N)C(=O)O

Test system: rat pituitary cells
Format: cell-based
Settings: 3 h
How it was run: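 Dispersed adult male rat pituitary cells, cultured 4-5 days, were exposed 3 h at 37° C in medium 199 with 1% BSA to 6 antagonist doses plus 1 nM SRIF and 1 nM GRF(1-29)NH2, in triplicate. GH in medium measured by radioimmunoassay; IC50 versus 1 nM SRIF fitted, maximum constrained to GRF-stimulated control.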

SMILES | IC50
CC(C)[C@@H]1NC(=O)[C@H](CCCCN)NC(=O)[C@@H](Cc2c[nH]c3ccccc23)NC(=O)[C@H](Cc2ccc(O)cc2)NC(=O)[C@H](NC(=O)[C@@H](N)Cc2ccc3ccccc3c2)CSSC[C@@H](C(=O)N[C@@H](C(N)=O)C(c2ccccc2)c2ccccc2)NC1=O [Analog No. 48, H2-β-Nal-D-Cys-Tyr-D-Trp-Lys-Val-Cys-D-Dip-NH2] (H-[2Nal][dC]Y[dW]KVC[dDip]-NH2; disulfide 2-7) | 50 nM
CC(C)[C@@H]1NC(=O)[C@H](CCCCN)NC(=O)[C@@H](Cc2c[nH]c3ccccc23)NC(=O)[C@H](Cc2csc3ccccc23)NC(=O)[C@H](NC(=O)[C@@H](N)Cc2ccc3ccccc3c2)CSSC[C@@H](C(=O)N[C@@H](Cc2ccc3ccccc3c2)C(N)=O)NC1=O [Analog No. 49, H2-β-Nal-D-Cys-Bta-D-Trp-Lys-Val-Cys-β-Nal-NH2] (H-[2Nal][dC][Bta][dW]KVC[2Nal]-NH2; disulfide 2-7) | 230 nM
CC(C)(C)[C@@H]1NC(=O)[C@H](CCCCN)NC(=O)[C@@H](Cc2c[nH]c3ccccc23)NC(=O)[C@H](Cc2cccnc2)NC(=O)[C@H](NC(=O)[C@@H](N)Cc2ccc(F)cc2)CSSC[C@@H](C(=O)N[C@@H](Cc2ccc3ccccc3c2)C(N)=O)NC1=O [Analog No. 50, H2-p-F-Phe-D-Cys-Pal-D-Trp-Lys-Tle-Cys-β-Nal-NH2] (H-[Phe(4-F)][dC][3Pal][dW]K[Tle]C[2Nal]-NH2; disulfide 2-7) | 1.1 nM
CC(C)(C)[C@@H]1NC(=O)[C@H](CCCCN)NC(=O)[C@@H](Cc2c[nH]c3ccccc23)NC(=O)[C@H](Cc2cccnc2)NC(=O)[C@H](NC(=O)[C@H](N)Cc2ccc(F)cc2)CSSC[C@@H](C(=O)N[C@@H](Cc2ccc3ccccc3c2)C(N)=O)NC1=O [Analog No. 51, H2-D-p-F-Phe-D-Cys-Pal-D-Trp-Lys-Tle-Cys-β-Nal-NH2] (H-[dPhe(4-F)][dC][3Pal][dW]K[Tle]C[2Nal]-NH2; disulfide 2-7) | 12 nM
CC(C)[C@@H]1NC(=O)[C@H](CCCCN)NC(=O)[C@@H](Cc2c[nH]c3ccccc23)NC(=O)[C@H](Cc2cccnc2)NC(=O)[C@H](NC(=O)[C@@H](N)Cc2ccc(Br)cc2)CSSC[C@@H](C(=O)N[C@@H](Cc2ccc(Br)cc2)C(N)=O)NC1=O [Analog No. 52, H2-Bpa-D-Cys-Pal-D-Trp-Lys-Val-Cys-Bpa-NH2] (H-[Phe(4-Br)][dC][3Pal][dW]KVC[Phe(4-Br)]-NH2; disulfide 2-7) | 2.6 nM
CC(C)[C@@H]1NC(=O)[C@H](CCCCN)NC(=O)[C@@H](Cc2c[nH]c3ccccc23)NC(=O)[C@H](Cc2cccnc2)NC(=O)[C@H](NC(=O)[C@@H](N)Cc2ccc(I)cc2)CSSC[C@@H](C(=O)N[C@@H](Cc2ccc(I)cc2)C(N)=O)NC1=O [Analog No. 53, H2-Iph-D-Cys-Pal-D-Trp-Lys-Val-Cys-Iph-NH2] (H-[Phe(4-I)][dC][3Pal][dW]KVC[Phe(4-I)]-NH2; disulfide 2-7) | 2.9 nM
CC(C)(C)[C@@H]1NC(=O)[C@H](CCCCN)NC(=O)[C@@H](Cc2c[nH]c3ccccc23)NC(=O)[C@H](Cc2cccnc2)NC(=O)[C@H](NC(=O)[C@@H](N)Cc2c[nH]c3ccccc23)CSSC[C@@H](C(=O)N[C@@H](Cc2ccc3ccccc3c2)C(N)=O)NC1=O [Analog No. 54, H2-Trp-D-Cys-Pal-D-Trp-Lys-Tle-Cys-β-Nal-NH2] (H-W[dC][3Pal][dW]K[Tle]C[2Nal]-NH2; disulfide 2-7) | 29 nM
CC(C)[C@@H]1NC(=O)[C@H](CCCCN)NC(=O)[C@@H](Cc2c[nH]c3ccccc23)NC(=O)[C@H](Cc2cccnc2)NC(=O)[C@H](NC(=O)[C@@H](N)Cc2ccc(Cl)cc2)CSSC[C@@H](C(=O)N[C@@H](Cc2ccc3ccccc3c2)C(N)=O)NC1=O [Analog No. 55, H2-p-Cl-Phe-D-Cys-Pal-D-Trp-Lys-Val-Cys-β-Nal-NH2] (H-[Phe(4-Cl)][dC][3Pal][dW]KVC[2Nal]-NH2; disulfide 2-7) | 2.6 nM
CC(C)(C)[C@@H]1NC(=O)[C@H](CCCCN)NC(=O)[C@@H](Cc2c[nH]c3ccccc23)NC(=O)[C@H](Cc2cccnc2)NC(=O)[C@H](NC(=O)[C@@H](N)Cc2ccc(Cl)cc2)CSSC[C@@H](C(=O)N[C@@H](Cc2ccc3ccccc3c2)C(N)=O)NC1=O [Analog No. 56, H2-p-Cl-Phe-D-Cys-Pal-D-Trp-Lys-Tle-Cys-β-Nal-NH2] (H-[Phe(4-Cl)][dC][3Pal][dW]K[Tle]C[2Nal]-NH2; disulfide 2-7) | 1.8 nM
CC(C)(C)[C@@H]1NC(=O)[C@H](CCCCN)NC(=O)[C@@H](Cc2c[nH]c3ccccc23)NC(=O)[C@H](Cc2cccnc2)NC(=O)[C@H](NC(=O)[C@@H](N)Cc2ccc(Cl)cc2)CSSC[C@@H](C(=O)N[C@@H](Cc2ccc(Cl)cc2)C(N)=O)NC1=O [Analog No. 57, H2-p-Cl-Phe-D-Cys-Pal-D-Trp-Lys-Tle-Cys-p-Cl-Phe-NH2] (H-[Phe(4-Cl)][dC][3Pal][dW]K[Tle]C[Phe(4-Cl)]-NH2; disulfide 2-7) | 5.9 nM
